The target of data set [1] is recombinant human Cathepsin S (Homo sapiens (Human), UniProt P25774). The data set can be described thus: Cathepsin S assay procedure (fluorogenic substrate Z-Val-Val-Arg-AMC). Type of data set: biochemical. The method, then:
25 μl of a 2 mg/l solution of activated recombinant human cathepsin S, in assay buffer, is then added to the well, yielding a final inhibitor concentration of 10 μM.
Enzyme activity is determined by measuring the fluorescence of the liberated aminomethylcoumarin at […] using 390 nm excitation, at 20 minutes. Percentage enzyme activity is calculated by comparison of this activity to that of a solution containing no inhibitor.

The next data set can be described thus: Rat oral bioavailability. As to conditions: Sprague-Dawley, in vivo, SD rat, read-out: Bioavailability F.
The subject of data set [2] is Human B lymphoblastoid cells (Jiyoye). Nature of the data set: Cell based Lip10 assay (lip10 accumulation, anti-CD74 ELISA). As to conditions: 24 hours, relative to E64d/LHVS-treated cells, read-out: pEC50 (negative logarithm of the EC50 concentration), lip10 assay (converted). As to the method:
Human B lymphoblastoid cells (Jiyoye) were cultured in RPMI 1640 medium at a density of 500 000 cells/ml in 24-well plates. Cells were treated with a concentration range of compounds (0.001-10 μM) and vehicle alone (DMSO, 0.1% v/v). In order to generate positive control treatments separate wells were treated with 10 μM E64d & 0.1 μM LHVS. The cells were incubated at 37° C. in a humidified incubator containing 5% CO2. After 24 hours the plates were centrifuged at 150×g for five minutes and the media removed. Cells were lysed by adding 65 ul of ice-cold phosphate buffered saline (PBS) containing 1% (v/v) Triton X-100 and protease inhibitors and incubated on ice for 20 minutes. The samples were centrifuged at 18 000×g for 15 minutes at 4° C. and the resulting supernatants collected and stored at −80° C. until required. After measurement of protein concentration using a micro-BCA protein assay all samples were diluted to […] and 50 l of each sample were coated overnight at 4° C. onto wells of high protein-binding 96-well plates. The wells were washed once with PBS (200 l/well) and then incubated at room temperature for 2 hours with 10 μg/ml mouse anti-CD74 Pin.1 monoclonal antibody (50 l/well) in PBS containing 0.05% (v/v) Tween-20 (PBS-T) and 2% (w/v) BSA (PBS-T/BSA). Unbound antibody was then removed by washing three times with PBS-T and followed by the addition of rabbit anti-mouse IgG antibody conjugated to horseradish peroxidase. After washing five times with PBS-T 100 μl of tetramethylbenzidine substrate was added to each well and incubated for 10 minutes on a plate shaker. The reaction was stopped by the addition of 100 μl of 1M hydrochloric acid. Antibody binding was quantified by measuring the optical density (OD, 450 nm) using a Molecular Devices Spectramax Plus. The OD of vehicle-only treated cells was removed from all values and the data was expressed as a percentage of the OD generated from the mean E64d/LHVS-treated cells. The potency of compounds (EC50) was measured by calculating the concentration of inhibitor required to generate 50% inhibition relative to E64d/LHVS-treated cells.
(ELISA stands for enzyme-linked immunosorbent assay.)

[3] abbreviates: pH5.5, fluorescence at 20 minutes, read-out: Cat S activity IC50.
Where [4] appears, read: read-out: pIC50 (negative logarithm of the IC50 concentration) for inhibition of human cathepsin S (converted).

20 compounds from patent US9115126B2, “1H-[1,2,3]triazolo[4,5-c]pyridine-4-carbonitrile derivatives” (Merck Sharp & Dohme B.V., priority 2010, dated 2015) can be followed below.

Where a name gives a salt, the structure may show the parent alone. Read-outs that look alike come from different tables or passages of the source.

recombinant human Cathepsin S, sequence (P25774 115-331): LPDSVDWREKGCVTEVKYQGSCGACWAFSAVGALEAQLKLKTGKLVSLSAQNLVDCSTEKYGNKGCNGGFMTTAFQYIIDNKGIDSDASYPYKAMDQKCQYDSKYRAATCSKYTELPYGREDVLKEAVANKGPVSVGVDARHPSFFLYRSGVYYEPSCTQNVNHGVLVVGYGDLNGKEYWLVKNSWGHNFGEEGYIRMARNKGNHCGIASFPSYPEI

One may read the bioavailability as dose-corrected exposure relative to a reference, in per cent. For the compound `CN(C)C(=O)CN1CCC(CCOc2ccc(-c3cc4c(ncn4C)c(C#N)n3)cc2C(F)(F)F)CC1.Cl` [EP 09150709.5 - Example 14d, reference compound], in data set [1] (setting [3]), the IC50 came out at 8.3 nM. Besides, in the data set “Rat oral bioavailability”, the bioavailability was 9%.

Consider `CN(C)C(=O)CN1CCC(CCOc2ccc(-c3cc4c(nnn4C)c(C#N)n3)cc2C(F)(F)F)CC1.Cl` [Example 2a, 6-(4-(2-(1-(2-dimethylamino-2-oxoethyl)piperidin-4-yl)ethoxy)-3-(trifluoromethyl)-phenyl)-1-methyl-1H-[1,2,3]triazolo[4,5-c]pyridine-4-carbonitrile hydrochloride], for which the EC50 in data set [2] is under 100 nM. The IC50 is 1.5 nM in data set [1] (setting [3]) and under 10 nM in data set [1] (setting [4]). Also, the bioavailability in “Rat oral bioavailability” came out at 42%. On to `Cn1nnc2c(C#N)nc(-c3ccc(OCCC4CCN(CC(C)(C)O)CC4)c(C(F)(F)F)c3)cc21` [Example 2d, 6-(4-(2-(1-(2-hydroxy-2-methylpropyl)piperidin-4-yl)ethoxy)-3-(trifluoromethyl)phenyl)-1-methyl-1H-[1,2,3]triazolo-[4,5-c]pyridine-4-carbonitrile hydrochloride], for which the EC50 in data set [2] was under 100 nM. In addition, the IC50 in data set [1] (setting [4]) was under 10 nM. In the case of `Cn1nnc2c(C#N)nc(-c3ccc(OCCC4CCN(Cc5ncco5)CC4)c(C(F)(F)F)c3)cc21` [Example 3a, 1-methyl-6-(4-(2-(1-(oxazol-2-ylmethyl)piperidin-4-yl)ethoxy)-3-(trifluoromethyl)phenyl)-1H-[1,2,3]triazolo[4,5-c]pyridine-4-carbonitrile], the EC50 in data set [2] was under 100 nM. Besides, in data set [1] (setting [4]), the IC50 was under 10 nM. With `Cn1nnc2c(C#N)nc(-c3ccc(OCCCN4CCN(CC(C)(C)O)CC4)c(C(F)(F)F)c3)cc21` [Example 36u, 6-(4-(3-(4-(2-hydroxy-2-methylpropyl)piperazin-1-yl)propoxy)-3-(trifluoromethyl)phenyl)-1-methyl-1H-[1,2,3]triazolo[4,5-c]pyridine-4-carbonitrile dihydrochloride], in data set [1] (setting [4]), the IC50 was under 10 nM. Take `CNC(=O)CN1CCN(CCCOc2ccc(-c3cc4c(nnn4C)c(C#N)n3)cc2C(F)(F)F)CC1` [Example 36v, 2-(4-(3-(4-(4-cyano-1-methyl-1H-[1,2,3]triazolo[4,5-c]pyridin-6-yl)-2-(trifluoromethyl)phenoxy)propyl)piperazin-1-yl)-N-methylacetamide dihydrochloride]: the IC50 in data set [1] (setting [4]) was under 10 nM. With `Cn1nnc2c(C#N)nc(-c3ccc(OCCCN4CCN(c5ccccn5)CC4)c(C(F)(F)F)c3)cc21` [Example 36w, 1-methyl-6-(4-(3-(4-(pyridin-2-yl)piperazin-1-yl)propoxy)-3-(trifluoromethyl)phenyl)-1H-[1,2,3]triazolo[4,5-c]pyridine-4-carbonitrile hydrochloride], the IC50 in data set [1] (setting [4]) is under 10 nM. Consider `CN(CCCOc1ccc(-c2cc3c(nnn3C)c(C#N)n2)cc1C(F)(F)F)CC(=O)N(C)C` [Example 36x, 2-((3-(4-(4-cyano-1-methyl-1H-[1,2,3]triazolo[4,5-c]pyridin-6-yl)-2-(trifluoro-methyl)phenoxy)propyl)(methyl)amino)-N,N-dimethylacetamide hydrochloride], for which the IC50 in data set [1] (setting [4]) is under 10 nM.

With `Cn1nnc2c(C#N)nc(-c3ccc(OCCN4CCN(CCO)CC4)c(C(F)(F)F)c3)cc21` [Example 37e, 6-(4-(2-(4-(2-hydroxyethyl)piperazin-1-yl)ethoxy)-3-(trifluoromethyl)phenyl)-1-methyl-1H-[1,2,3]triazolo[4,5-c]pyridine-4-carbonitrile], the IC50 in data set [1] (setting [4]) is under 10 nM. Consider `CN(C)C(=O)CN1CCN(CCOc2ccc(-c3cc4c(nnn4C)c(C#N)n3)cc2C(F)(F)F)CC1` [Example 37g, 2-(4-(2-(4-(4-cyano-1-methyl-1H-[1,2,3]triazolo[4,5-c]pyridin-6-yl)-2-(trifluoromethyl)phenoxy)ethyl)piperazin-1-yl)-N,N-dimethylacetamide dihydrochloride], for which the EC50 in data set [2] is under 100 nM. For the compound `CN(CCOc1ccc(-c2cc3c(nnn3C)c(C#N)n2)cc1C(F)(F)F)CC(=O)N(C)C` [Example 37m, 2-((2-(4-(4-cyano-1-methyl-1H-[1,2,3]triazolo[4,5-c]pyridin-6-yl)-2-(trifluoromethyl)phenoxy)ethyl)(methyl)amino)-N,N-dimethylacetamide], the IC50 in data set [1] (setting [4]) is under 10 nM. On the same count and under the same terms, the value for `Cn1nnc2c(C#N)nc(-c3ccc(OCCN4CCS(=O)(=O)CC4)c(C(F)(F)F)c3)cc21` [Example 37p, 1-methyl-6-(4-(2-(4-S,S-dioxothiomorpholin-1-yl)ethoxy)-3-(trifluoromethyl)phenyl)-1H-[1,2,3]triazolo[4,5-c]pyridine-4-carbonitrile] was under 10 nM. Regarding `Cn1nnc2c(C#N)nc(-c3ccc(OCCN4CCNC(C(F)(F)F)C4)c(C(F)(F)F)c3)cc21` (centres unmarked) [Example 37q, 1-methyl-6-(3-(trifluoromethyl)-4-(2-(3-(trifluoromethyl)piperazin-1-yl)ethoxy)phenyl)-1H-[1,2,3]triazolo[4,5-c]pyridine-4-carbonitrile], in data set [1] (setting [4]), the IC50 was under 10 nM. In the case of `Cn1nnc2c(C#N)nc(-c3ccc(OCCN4CCNC(=O)C4)c(C(F)(F)F)c3)cc21` [Example 37r, 1-methyl-6-(4-(2-(3-oxopiperazin-1-yl)ethoxy)-3-(trifluoromethyl)phenyl)-1H-[1,2,3]triazolo[4,5-c]pyridine-4-carbonitrile], in data set [1] (setting [4]), the IC50 is under 10 nM. Regarding `COC(=O)[C@@H](O)CN1CCC(CCOc2ccc(-c3cc4c(nnn4C)c(C#N)n3)cc2C(F)(F)F)CC1` [Example 39, (S)-methyl 3-(4-(2-(4-(4-cyano-1-methyl-1H-[1,2,3]triazolo[4,5-c]pyridin-6-yl)-2-(trifluoromethyl)phenoxy)ethyl)piperidin-1-yl)-2-hydroxypropanoate], the IC50 in data set [1] (setting [4]) was under 10 nM.

On to `CC(C)c1noc(COc2ccc(-c3cc4c(nnn4C)c(C#N)n3)cc2C(F)(F)F)n1` [Example 43, 6-(4-((3-isopropyl-1,2,4-oxadiazol-5-yl)methoxy)-3-(trifluoromethyl)phenyl)-1-methyl-1H-[1,2,3]triazolo[4,5-c]pyridine-4-carbonitrile], for which the IC50 in data set [1] (setting [4]) is under 10 nM.

For `Cn1nnc2c(C#N)nc(-c3ccc(CCCO)c(C(F)(F)F)c3)cc21` [Example 44, 6-(4-(3-hydroxypropyl)-3-(trifluoromethyl)phenyl)-1-methyl-1H-[1,2,3]triazolo[4,5-c]pyridine-4-carbonitrile], the IC50 in data set [1] (setting [3]) stood at 13 nM. For `CN(C)CCCOc1ccc(-c2cc3c(ncn3C)c(C#N)n2)cc1C(F)(F)F` [WO 2009/010491 - Example 2a, reference compound], in data set [1] (setting [3]), the IC50 worked out at 32 nM. Take `Cn1cnc2c(C#N)nc(-c3ccc(OCCC4CCNCC4)c(C(F)(F)F)c3)cc21` [WO 2009/010491, Example 14a, reference compound]: the IC50 in data set [1] (setting [3]) is 8 nM. `Cn1cnc2c(C#N)nc(-c3ccc(CCCO)c(C(F)(F)F)c3)cc21` [WO 2009/010491, Example 15, reference compound]: the IC50 in data set [1] (setting [3]) was determined as 234 nM.
